Measurements as given in US9951071B2 (priority 2012, dated 2018).
Structures can show the parent of a compound that is named as a salt. Where two headings read alike, the source gives them in different places.

Legend:
[1] = rcm bond, 12-membered ring
[2] = rcm bond, 12-membered ring, Grubbs II/pTsOH, DCM
[3] = biological target: purified human Factor XIa (Homo sapiens (Human), UniProt P03951); test: biochemical
[4] = biological target: purified human plasma kallikrein (Homo sapiens (Human), UniProt P03952); test: biochemical
[5] = from C=CC[C@H](NC(=O)OC(C)(C)C)c1cc(-c2ccccc2NC(=O)C(C=C)C(C)C)ccn1, Grubbs II (2 x 0.2 eq), microwave, DCE, 40.0 mM, […]

purified human Factor XIa, sequence (P03951 whole entry, looked up): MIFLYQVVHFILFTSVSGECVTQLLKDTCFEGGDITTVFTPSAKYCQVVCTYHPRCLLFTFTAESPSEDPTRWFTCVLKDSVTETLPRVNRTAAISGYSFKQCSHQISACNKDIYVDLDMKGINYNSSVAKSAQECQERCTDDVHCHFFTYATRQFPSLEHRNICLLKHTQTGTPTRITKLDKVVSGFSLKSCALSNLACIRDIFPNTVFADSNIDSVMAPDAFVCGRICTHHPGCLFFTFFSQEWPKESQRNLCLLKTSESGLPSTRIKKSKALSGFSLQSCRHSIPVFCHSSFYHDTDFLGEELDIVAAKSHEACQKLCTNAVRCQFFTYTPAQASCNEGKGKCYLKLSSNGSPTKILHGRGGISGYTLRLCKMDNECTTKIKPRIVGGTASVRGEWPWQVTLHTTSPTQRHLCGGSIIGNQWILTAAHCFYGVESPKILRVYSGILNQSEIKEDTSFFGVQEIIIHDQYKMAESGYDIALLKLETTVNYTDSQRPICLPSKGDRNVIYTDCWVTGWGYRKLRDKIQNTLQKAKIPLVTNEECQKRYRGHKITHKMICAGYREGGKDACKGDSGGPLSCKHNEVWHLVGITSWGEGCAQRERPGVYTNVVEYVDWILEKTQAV
purified human Factor XIa, sequence (P03951 whole entry, looked up): as above
purified human plasma kallikrein, sequence (P03952 whole entry, looked up): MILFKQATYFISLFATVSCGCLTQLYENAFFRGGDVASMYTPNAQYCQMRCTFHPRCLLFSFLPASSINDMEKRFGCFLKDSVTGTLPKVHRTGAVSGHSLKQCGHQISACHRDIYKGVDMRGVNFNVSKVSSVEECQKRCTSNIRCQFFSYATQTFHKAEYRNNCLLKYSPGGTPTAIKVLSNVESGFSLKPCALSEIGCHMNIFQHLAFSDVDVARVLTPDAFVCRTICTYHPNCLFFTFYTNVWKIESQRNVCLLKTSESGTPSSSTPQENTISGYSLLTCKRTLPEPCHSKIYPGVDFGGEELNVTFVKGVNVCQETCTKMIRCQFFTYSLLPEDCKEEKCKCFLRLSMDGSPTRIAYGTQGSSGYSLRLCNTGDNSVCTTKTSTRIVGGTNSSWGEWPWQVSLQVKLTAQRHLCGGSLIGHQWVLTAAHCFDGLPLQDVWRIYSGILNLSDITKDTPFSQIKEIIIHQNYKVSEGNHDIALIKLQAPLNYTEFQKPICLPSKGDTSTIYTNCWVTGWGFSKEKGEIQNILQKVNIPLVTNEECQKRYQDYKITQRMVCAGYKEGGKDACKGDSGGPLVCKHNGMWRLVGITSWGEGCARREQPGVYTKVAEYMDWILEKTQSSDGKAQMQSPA
purified human plasma kallikrein, sequence (P03952 whole entry, looked up): as above

CC(C)[C@@H]1/C=C/C[C@H](NC(=O)OC(C)(C)C)c2cc(ccn2)-c2ccccc2NC1=O
ring closure, isolated yield [1, 5]: 10.2%

CC(C)[C@H]1/C=C/C[C@H](NC(=O)OC(C)(C)C)c2cc(ccn2)-c2ccccc2NC1=O
ring closure, isolated yield [1, 5]: 8.9%

COC(=O)Nc1ccc2c(c1)C(=O)NC/C=C/C[C@H](NC(=O)OC(C)(C)C)c1cc-2ccn1
ring closure, yield after HPLC ([2]; from C=CCNC(=O)c1cc(NC(=O)OC)ccc1-c1ccnc([C@H](CC=C)NC(=O)OC(C)(C)C)c1, […], 3.0 h): 39.4%

COC(=O)Nc1ccc2c(c1)NC(=O)[C@H](C)/C=C/C[C@H](NC(=O)OC(C)(C)C)c1nc-2cn1COCC[Si](C)(C)C
ring closure, isolated yield ([1]; from C=CC[C@H](NC(=O)OC(C)(C)C)c1nc(-c2ccc(NC(=O)OC)cc2NC(=O)[C@H](C)C=C)cn1COCC[Si](C)(C)C, Grubbs II (0.4 eq)/pTsOH, DCM, 10.0 mM, 40.0 °C, 21.5 h): 40.7%

C[C@@H]1/C=C/C[C@H](NC(=O)OC(C)(C)C)c2cc(ccn2)-c2ccccc2NC1=O
ring closure, isolated yield ([1]; from C=CC[C@H](NC(=O)OC(C)(C)C)c1cc(-c2ccccc2NC(=O)[C@H](C)C=C)ccn1, Grubbs II/pTsOH, DCM, 11.8 mM, 40.0 °C, 4.5 h): 78%

C[C@@H]1CCC[C@H](N2CCC(c3c(F)ccc(Cl)c3F)=CC2=O)c2cc(ccn2)-c2ccncc2NC1=O [Example 72, (10R,14S)-14-[4-(3-Chloro-2,6-difluorophenyl)-6-oxo-1,2,3,6-tetrahydropyridin-1-yl]-10-methyl-5,8,16-triazatricyclo[13.3.1.0^2,7]nonadeca-1(19),2(7),3,5,15,17-hexaen-9-one, TFA Salt]
Ki [3]: 8.67 nM
Ki [4]: 19 nM

COC(=O)c1ccc2c(c1)-c1cccc(c1)[C@@H](N1CC=C(c3c(F)ccc(Cl)c3F)CC1=O)CCC[C@@H](C)C(=O)N2 [Example 174, Methyl (10R,14S)-14-[4-(3-chloro-2,6-difluorophenyl)-2-oxo-1,2,3,6-tetrahydropyridin-1-yl]-10-methyl-9-oxo-8-azatricyclo[13.3.1.0^2,7]nonadeca-1(19),2,4,6,15,17-hexaene-4-carboxylate]
Ki [3]: > 625 nM

COC(=O)c1ccc2c(c1)-c1cccc(c1)[C@@H](N1CC=C(c3c(Br)ccc(Cl)c3F)CC1=O)CCC[C@@H](C)C(=O)N2 [Example 176, Methyl (10R,14S)-14-[4-(6-bromo-3-chloro-2-fluorophenyl)-2-oxo-1,2,3,6-tetrahydropyridin-1-yl]-10-methyl-9-oxo-8-azatricyclo[13.3.1.0^2,7]nonadeca-1(19),2,4,6,15,17-hexaene-4-carboxylate]
Ki [3]: > 625 nM

tert-butyl N-[(10R,11Z,14S)-17-methoxy-5-[(methoxycarbonyl)amino]-10-methyl-9-oxo-8,16-diazatricyclo[13.3.1.0^2,7]nonadeca-1(19),2,4,6,11,15,17-heptaen-14-yl]carbamate and tert-butyl N-[(10R,11E,14S)-17-methoxy-5-[(methoxycarbonyl)amino]-10-methyl-9-oxo-8,16-diazatricyclo[13.3.1.0^2,7]nonadeca-1(19),2,4,6,11,15,17-heptaen-14-yl]carbamate as a Mixture
ring closure, yield after HPLC ([2]; 8.5 mM): 29%
